According to US20160251625A1, “METHOD FOR SCALABLE SKELETAL MUSCLE LINEAGE SPECIFICATION AND CULTIVATION” (THE CURATORS OF THE UNIVERSITY OF MISSOURI, priority 2013, published 2016):

Key:
[1] = test system: O2KM cell line; assay: 5AC effects on MYF5 expression and terminal differentiation of O2KM; type: cell-based, porcine
Protocol: Therefore, a epigenetic modulator was used to enhance the expression of myogenic genes in cells otherwise non-permissive to myogenesis and enhance terminal differentiation of lineage committed myoctes to mature myofibers. […] This distinction may explained by the enhanced expression of the myogenic transcription factor MYF5 observed only in the 5AC-exposed O2KM prior to and following 48 hours of DOX withdrawal
(§1) 5AC exposure prior to, during, and following E2-mediated induction of ‘MyoDER’ was introduced to enable terminal-differentiation of O2KM from myocytes into refractive, filamentous myotubes. The murine C2C12 cell line was used as positive control to screen for optimal conditions for terminal differentiation by O2KM. […] 5AC, a small-molecule epigenetic modulator, was determined previously to enable skeletal muscle transcription in cell lines non-permissive to myogenesis. Moreover, 5AC exposure was further determined to enhance terminal differentiation by the C2C12 cell line.
N-2 and B-27 supplements were used exclusively as serum replacements. Cultures were differentiated for up to 6d following under 20% O2 following induction regimens (FIG. 20A). […] Contractile potential of terminally differentiating skeletal muscle myotubes was validated by (1) structural development of well-organized sarcomeres, as shown in FIG. 20G; (2) asynchronous spontaneous contraction, as shown in FIG. 21A; (3) contractile stimulation and synchronization by field stimulation, as shown in FIG. 21B; (4) caffeine-stimulated contraction, as shown in FIG. 21C; and (5) acetylcholine-stimulated contraction, as shown in FIG. 21D.
piPSC modification with an integrated MyoDER expression cassette. […] Arrows and boxes indicate promoter and gene sequences, respectively. […] MyoDER was detected with an antibody raised against a MyoD peptide. […] Endogenous MYOD1 (˜45 kD, expected) was not detected. […] Double Arrow: Partially resolved MYOG isoforms. FIGS. 19A and 19B. Determinants of MYF5 activation: Western blot analyses. […] In the absence of CHIR99021, the 17 kD cleaved caspase isoform was not observed in the KOSR supplemented differentiation milieu, as in contrast to observations in the N-2 and B-27 supplemented differentiation milieu (FIG. 17A, FIG. 19A). […] MYODER-modified piPSC were cultured 3 days in self-renewal or expansion milieu. […] TUBA is detected as an internal protein loading control.

[2] = test system: undifferentiated O2KM; assay: 5AC tolerance of undifferentiated O2KM; type: cell-based, porcine
Protocol: as §1

[3] = test system: O2K cell line; assay: differentiation marker Western blot (PAX3, POU5F1, KLF4) in O2K; type: cell-based, porcine; settings: differentiating O2K, CHIR99021 supplemented basal medium
Description: (§2) 1. As CHIR99021 repressed cell death, supported differentiation toward paraxial mesoderm by the differentiating O2K cell line and enhanced terminal differentiation by the C2C12 cell line, precedent was established to retain the compound in all culture stages.
TUBA detected as an internal protein loading control. FIG. 13A indicates ratios of p-CTNNB1/CTNNB1 bands. FIG. 13B indicates ratios of CTNNB1/TUBA bands. […] TUBA detection is shown as an internal protein loading control.

[4] = test system: CTNNB1; assay: Western blot of CTNNB1 level and phosphorylation in differentiating O2K; type: cell-based, porcine; settings: primordial differentiation
Description: TUBA detected as an internal protein loading control. […] TUBA detection is shown as an internal protein loading control.

[5] = test system: murine C2C12 myoblast; assay: terminal differentiation of C2C12 myoblasts, scored by size and extent of myotube formation; type: cell-based; settings: low-mitogen differentiation cultures (2% horse serum/DMEM)
[6] = test system: O2K cell line; assay: cell death / survival of differentiating O2K (phase contrast, cell adhesion, CPP32 cleavage, Annexin V); type: cell-based, porcine; settings: SRM basal medium without hLIF, DOX, PD032591 and PD173074
Description: as §2
TUBA is detected an internal protein loading control.

[7] = test system: piPSC-derived myotubes; assay: calcium transient activity (Fluo-4 AM) in piPSC-derived myotubes; type: cell-based, porcine; settings: d6 myotubes, 10 mM, field of view
Description: To quantify contraction cycles, myotube cultures were stained with Fluo-4 AM calcium dye, washed, and image sequences were captured by confocal microscopy. Dynamic signaling events of an entire field of view (FOV) or single cells were traced and plotted over the imaging course. [s]=seconds.

Nc1ncn([C@@H]2O[C@H](CO)[C@@H](O)[C@H]2O)c(=O)n1 [5AC, 5-Aza-Cytidine]
MYF5 expression after expansion culture ([1]; MyoDER-modified piPSC, 3 days, in the presence of DOX and CHIR99021): supported detectable MYF5 expression levels | MYF5 expression ([1]; O2KM derived myocytes cultured in the presence of 5AC): MYF5 expression was enhanced | myotube morphology in terminal differentiation ([1]; O2KM exposed to 5AC during expansion and induction regimens): formed refractive, anisotropic myotubes | activation of endogenous MYF5 expression, dependence on CHIR99021 ([1]; unmodified piPSC, 2d differentiation milieu with KOSR, no 3i, DOX, hLIF, E2): dependent upon simultaneous CHIR99021 exposure | highest dose tolerated [2]: 250 nM

Cc1c[nH]c(-c2cnc(NCCNc3ccc(C#N)cn3)nc2-c2ccc(Cl)cc2Cl)n1 [CHIR99021]
paraxial mesoderm lineage specification (PAX3 expression, loss of POU5F1 and KLF4) [3]: supported pre-myogenic paraxial mesoderm lineage specification of differentiating O2K | CTNNB1 stabilization and phosphorylation status [4]: stabilizes and modulates the phosphorylation status of the GSK3β substrate, CTNNB1 | terminal differentiation of C2C12 into skeletal myotubes [5]: enhanced terminal differentiation into skeletal myotubes | cell survival during differentiation [6]: supported both cell survival during differentiation

Cn1c(=O)c2c(ncn2C)n(C)c1=O [caffeine]
calcium transient activation [7]: calcium transient activation
